Measurements as given in patent US20250127165A1, “USE OF 2-AMINO-3-PHENYLBUTYRIC ACID OR 2,6-DIAMINO-3-METHYLHEXANOIC ACID AS PLANT IMMUNE RESISTANCE INDUCER” (NANJING TIANNONG BIOTECHNOLOGY CO., LTD., priority 2021, published 2025).

What was measured:
Type in all cases: in vivo
[1] = system: Pseudomonas syringae PstDC3000; test: Induced resistance of Arabidopsis thaliana to Pseudomonas syringae infection; settings: for disease index / number of bacteria in the leaves, CFU (mg) / number of bacteria in the leaves, CFU/mg: 3 days after inoculation; for decrease of the number of bacteria per milligram of leaves: compared with blank control
Procedure: 2-amino-3-phenylbutyric acid was dissolved in sterile water and then gradiently diluted with sterile water into solutions of 100 nM, 1,000 nM, and 10,000 nM, and a blank control was set up, while 0.02% Tween 20 was added as surfactant. The Pseudomonas syringae PstDC3000 was coated on the LB plate and cultured at 28° C. for 48 hours. Single colonies were picked and inoculated into a 50 mL centrifuge tube containing 2 mL of medium, cultured at 28° C. on a shaker at 250 rpm. The change of OD600 value of the bacterial solution was monitored every 1-2 hours until it reached 0.8, and the culture of the bacteria was stopped. 1 mL of the bacterial solution was transferred into a 1.5 mL sterile centrifuge tube and centrifuged at 8,000 rpm for 2 min to collect the precipitate. The supernatant was removed, and the precipitate was washed 3 times with 10 mM magnesium chloride and centrifuged, and finally the PstDC3000 was resuspended in 10 mM magnesium chloride to reach an OD600 value of […] for later use. The Arabidopsis thaliana seeds were soaked in 75% alcohol for 3 min, then washed 4 times with sterile water and planted in a Petri dish containing ½ MS medium. Twelve seeds were planted in each petri dish, and ½ MS petri dishes with seeds were vernalized at 4° C. for 3 d to break dormancy and then placed in a culture room at 22° C. with a light intensity of 100 μE m^−2s^−1 (16 h light/8 h darkness). When the seedlings grew for 2 weeks, the 2-amino-3-phenylbutyric acid solutions at different concentrations were slowly poured into the petri dish until the whole Arabidopsis thaliana seedlings were submerged, and kept for 2-3 minutes, and then the treatment solution was poured out of the petri dish. The treatment was performed once every 24 h for a total of 2 treatments. 24 hours after the second treatment, the PstDC3000 suspension (OD600=0.01) was inoculated onto the leaves of Arabidopsis thaliana by the same submerge method. After inoculation, the petri dish was closed with a medical breathable adhesive tape and placed in the culture room for further culture. After 3 days, the number of bacteria in different treatments was determined and the incidence of Arabidopsis thaliana was observed. The disease index was calculated in the same manner as that in Example 2.
Grading standard of Disease injury caused by PstDC3000 (per leave): • Grade 0: No diseased patches on the leaves; • Grade 1: The area of diseased spots accounts for 0%-10% of the whole leaf; • Grade 2: The area of diseased spots accounts for 10%-25% of the whole leaf; • Grade 3: The area of diseased spots accounts for 25%-50% of the whole leaf; • Grade 4: The area of diseased spots accounts for 50%-75% of the whole leaf; • Grade 5: The area of diseased spots accounts for 75%-100% of the whole leaf.

Arabidopsis thaliana = test: Induced resistance of Arabidopsis thaliana to high temperature stress; settings: for heat injury index (%): 45° C. 12 h, 7 days recovery; for PIABS (photosynthetic performance index): after 45° C. for 12 h
Procedure: 2-amino-3-phenylbutyric acid was dissolved in distilled water and then gradiently diluted with distilled water into solutions of 100 nM, 1,000 nM, and 10,000 nM, and a blank control was set up, while 0.02% Tween 20 was added as surfactant. Four groups of replicates were set up for each concentration, and set up a blank control at room temperature. Arabidopsis thaliana seeds were planted in a pot with a diameter of 8.5 cm at about 50 seeds per pot, and grown in a greenhouse at a temperature of 22° C., a humidity of 60%-70%, and a light intensity of 100 μmol m^−2s^−1 (16 h light/8 h darkness). The treatment was initiated at the 21 d of seedling stage of Arabidopsis thaliana by spraying 2-amino-3-phenylbutyric acid solution on the leaf surface, and spraying twice within 24 hours. 24 hours after the second treatment, the plants were transferred to a light incubator at a temperature of 45° C. for high temperature stress treatment. After 12 h of treatment, they were treated in the dark at room temperature for 30 min, and then the chlorophyll fluorescence of the Arabidopsis thaliana leaves was measured with Plant Efficiency Handy PEA. Then, the plants were removed and transferred to a greenhouse at 25° C. for 7 days for recovery. The injured conditions of the plants were observed and the grade of hot injury was calculated, where the grading standard of heat injury is shown in Table 1, and the formula for calculating the heat injury index is as follows.
The concentrations of 2,6-diamino-3-methylhexanoic acid used in this trail are 0, 1, 10, 100 and 1,000 nM, and 0.02% Tween 20 is added as a surfactant. Four groups of replicates were set up. Other methods were the same as 2-amino-3-phenylbutyric acid, and the effect of 2,6-diamino-3-methylhexanoic acid to induce the resistance of Arabidopsis thaliana to high temperature stress was investigated.

wheat = test: Induced resistance of wheat to drought stress (25% PEG-6000); settings: for drought injury index (%) / dry weight (g) aboveground part / dry weight (g) underground part / fresh weight (g) aboveground part / fresh weight (g) underground part / length of root (cm): 6 days drought stress, 7 days recovery
Procedure: Wheat was hydroponic cultured in a 6-mesh sieve used as a container at 50 grains per sieve, and ½ Hoagland nutrient solution was changed every three days. When the wheat grew to the stage of two leaves and one bud, 2-amino-3-phenylbutyric acid solution was sprayed on the leaf surface, and the concentration of 2-amino-3-phenylbutyric acid was 0, 100 and 1,000 nM, and 0.02% Tween 20 was added as surfactant. After two days of continuous spraying, the hydroponic nutrient solution was replaced with ½ Hoagland nutrient solution containing 25% PEG-6000 on the 3rd day for stress treatment. After 6 days of drought stress, rehydration treatment was conducted. And after 7 days of recovery growth in normal nutrient solution, the drought injury index was observed and determined, and the root length and biomass were determined.
The performance characteristics of drought injury of leaves are similar to those of salt injury. The rate of drought injury and the drought injury index are introduced by using the evaluation indexes of salt injury. The formula for calculating the drought injury index is as follows, and the grading standard of drought injury is shown in Table 15.

[2] = 10,000 nM, versus untreated heat-stressed group

Compound	decrease of the disease index ([1]; 100 nM) [%]	disease index ([1]; 100 nM) [b]	decrease of the number of bacteria per milligram of leaves ([1]; 100 nM) [%]	decrease of the disease index ([1]; 1,000 nM) [%]	disease index ([1]; 1,000 nM) [c]	decrease of the number of bacteria per milligram of leaves ([1]; 1,000 nM) [%]	decrease of the disease index ([1]; 10,000 nM) [%]	number of the bacteria per mg leaves ([1]; 10,000 nM)	decrease of the number of bacteria per milligram of leaves ([1]; 10,000 nM) [%]	heat injury index (%) (Arabidopsis thaliana; 100 nM)	PIABS (photosynthetic performance index) (Arabidopsis thaliana; 100 nM)	heat injury index (%) (Arabidopsis thaliana; 1,000 nM)	PIABS (photosynthetic performance index) (Arabidopsis thaliana; 1,000 nM)	drought injury index (%) (wheat; 100 nM)	dry weight (g) aboveground part (wheat; 100 nM) [b g]	dry weight (g) underground part (wheat; 100 nM) [b g]	fresh weight (g) aboveground part (wheat; 100 nM) [b g]	fresh weight (g) underground part (wheat; 100 nM) [b g]	length of root (cm) (wheat; 100 nM)	decrease of drought injury index (wheat; 1,000 nM) [%]	other results
CC(CCCN)C(N)C(=O)O (centres unmarked) [2,6-diamino-3-methylhexanoic acid]	50.96	42.01 ± 1.36	73.93	56.15	37.57 ± 0.24	84.15	76.82	1.58×10^5 per mg leaves	95.11	29	5.73 ± 0.17 c	9	9.49 ± 0.14 b	40	0.94 ± 0.01	0.42 ± 0.01	7.70 ± 0.02	3.79 ± 0.01	14.35 ± 0.08 b cm	59	number of bacteria in the leaves, CFU (mg) ([1]; 100 nM): 8.42 × 10^5 CFU (mg); number of bacteria in the leaves, CFU (mg) ([1]; 1,000 nM): 5.12 × 10^5 CFU (mg); number of bacteria in the leaves, CFU (mg) ([1]; 10,000 nM): 1.58 × 10^5 CFU (mg); heat injury index (%) (Arabidopsis thaliana; 1 nM): 49%; PIABS (photosynthetic performance index) (Arabidopsis thaliana; 1 nM): 1.84 ± 0.02 e; heat injury index (%) (Arabidopsis thaliana; 10 nM): 38%; PIABS (photosynthetic performance index) (Arabidopsis thaliana; 10 nM): 3.58 ± 0.11 days; increase of PIABS compared with the control group (Arabidopsis thaliana; 1,000 nM): 36 fold; decrease of heat injury index (Arabidopsis thaliana; 1,000 nM, versus untreated heat-stressed group): 64%; increase of fresh weight of aboveground part compared with the control group (wheat; 1,000 nM): 31.03%; increase of fresh weight of underground part compared with the control group (wheat; 1,000 nM): 34.42%; increase of root length compared with the control group (wheat; 1,000 nM): 9.77%; drought injury index (%) (wheat; 1,000 nM): 21%; dry weight (g) aboveground part (wheat; 1,000 nM): 1.05 ± 0.01 a g; dry weight (g) underground part (wheat; 1,000 nM): 0.49 ± 0.01 a g; fresh weight (g) aboveground part (wheat; 1,000 nM): 8.99 ± 0.01 a g; fresh weight (g) underground part (wheat; 1,000 nM): 4.59 ± 0.03 a g; length of root (cm) (wheat; 1,000 nM): 14.63 ± 0.12 a cm
CC(c1ccccc1)C(N)C(=O)O (centres unmarked) [2-amino-3-phenylbutyric acid]	52.57	38.04 ± 1.04	92.05	58.45	33.33 ± 4.17	92.94	81.82	1.34×10^5 per mg leaves	95.56	47	26.13 ± 7.37 bc	31	27.27 ± 3.93 bc	46	0.87 ± 0.01	0.38 ± 0.01	7.51 ± 0.24	3.77 ± 0.23	14.23 ± 0.12 a cm	46	number of bacteria in the leaves, CFU/mg ([1]; 100 nM): 2.40 × 10^5 CFU/mg; number of bacteria in the leaves, CFU/mg ([1]; 1,000 nM): 2.13 × 10^5 CFU/mg; number of bacteria in the leaves, CFU/mg ([1]; 10,000 nM): 1.34 × 10^5 CFU/mg; heat injury index (%) (Arabidopsis thaliana; 10,000 nM): 16%; PIABS (photosynthetic performance index) (Arabidopsis thaliana; 10,000 nM): 33.40 ± 3.91 b; decrease of heat injury index (Arabidopsis thaliana; [2]): 56%; increase of PIABS (Arabidopsis thaliana; [2]): 134%; increase of fresh weight of aboveground part compared with the control group (wheat; 1,000 nM): 46.33%; increase of fresh weight of underground part compared with the control group (wheat; 1,000 nM): 55.14%; increase of root length compared with the control group (wheat; 1,000 nM): 11.87%; drought injury index (%) (wheat; 1,000 nM): 27%; dry weight (g) aboveground part (wheat; 1,000 nM): 0.94 ± 0.05 a g; dry weight (g) underground part (wheat; 1,000 nM): 0.43 ± 0.02 a g; fresh weight (g) aboveground part (wheat; 1,000 nM): 8.97 ± 0.32 a g; fresh weight (g) underground part (wheat; 1,000 nM): 4.53 ± 0.01 a g; length of root (cm) (wheat; 1,000 nM): 14.70 ± 0.37 a cm
